{"source": "patent US20060276460A1", "about": "“Use of piperazine phenothiazine derivatives in the manufacture of a medicament with neuroprotector and/or neurotrophic effects on cns and/or pns” (priority 2003, published 2006)", "key": {"[1]": {"system": "spinal cord motoneuron cell culture", "experiment": "Neuronal survival and proliferation of spinal cord motoneuron cell culture", "format": "cell-based, Wistar rats", "details": "50, 100, 250 nmol/l; counted at 2-120 hours; compared to cultures with BDNF alone", "experimental": "In vitro studies were first conducted on spinal cord motoneurons which are involved in peripheral neuropathy diseases as for example amyotrophic lateral sclerose (ALS) according to protocols described by Martinou J. C., Martinou I., Kato A. C. in Cholinergic differentiation factor (CDF/LIF) promotes survival of isolated rat embryonic motoneurons in vitro.\nCells cultures are incubated with different Fluphenazine N-Mustard dihydrochloride concentrations: 50, 100, 250 nmol/l.\nNeuronal survival is then monitored at different time points; 2, 24, 48, 72, 96, 120 hours by counting the number of cells under microscope.\nthe percentage of neuronal survival obtained when cells cultures are incubated with flufenazine is compared to cell cultures incubated alone only with 50 microgram's of brain derived neurotrophic factor (BDNF)."}, "cortical neurons [2]": {"system": "cortical neurons", "experiment": "Glutamic acid intoxication assay (LDH release)", "format": "cell-based, Wistar rats", "procedure": "Further studies were conducted on cortical neurons intoxicated with glutamic acid according to the protocol described by Nilsen J. and Brinton R D in Impact of progestins on oestrogen-induced neuroprotection:synergy by progesterone and 19-norprogesterone and antagonism by medoxyprogesterone acetate. Endocrinology 143:205-212 2002.\n(§1) Two types of primary neuronal cell cultures i.e. cortical and spinal cord neurons are isolated from 15-17 days old foetuses of female Wistar rats and cultured in neurobasal/B27 medium until cell differentiation.\nThe neuroprotective activity is assessed on glu-induced cortical neurons loss. The process of death is initiated by 10 min treatment of neuron cell cultures with neurotoxic concentration of glutamic acid at 100 micromol/l.\nThe ability of flufenazine to reverse the death process is achieved by subsequent exposure of cells to flufenazine concentrations of 100 and 200 nmol/l. The quantity of LDH released is used to estimate the degree of intoxication and the decrease of quantity released is proportional at cellular resistance to Glu neurotoxicity.\nthe percentage of neuronal survival obtained when intoxicated cells cultures are incubated with flufenazine is compared to cell cultures without flufenazine."}, "mesencephalic neurons": {"system": "mesencephalic neurons", "details": "250 nmol/l", "procedure": "Cortical neurons are involved in Alzheimer's disease and also in mesencephale neurons or dopaminergic neurons which are themselves involved in Parkinson's disease. (see also protocol described by Y. Mitsumotol, A. Watanabe, T. Miyauchi, F. Jimma, and T. Moriizumi in Stimulation of the regrowth of MPP+/damaged dopaminergic fibers by the treatment of mesencephalic cultures with basigin; J Neural Transm (2001) 108: 1127-1134).\nThe neuroprotective activity is assessed on MPP+ induced mesencephalic neuron loss with flufenazine concentration of 250 nmol/l\nThe cells are intoxicated by 2 micromol of MPP+ as neurotoxic during 24 h. The cell culture is then treated with 250 nm/l of flufenazine.\nThe percentage of mesencephalic neuronal survival obtained when intoxicated cells cultures are incubated with flufenazine is compared to cell cultures without flufenazine."}, "cortical neurons [3]": {"system": "cortical neurons", "experiment": "Neurotrophic assay, neurite outgrowth in cortical neuronal cultures", "format": "cell-based, Wistar rats", "details": "200 nmol/l; 24 h exposure", "description": "The neurotrophic effect i.e. the neurite outgrowth with flufenazine was investigated on both cortical and spinal cord neuronal cultures according to the protocol described by Lucius R, Sievers J. in Postnatal retinal ganglion cells in vitro: protection against reactive oxygen species (ROS)-induced axonal degeneration by cocultured astrocytes Brain Res Dec. 16, 1996;743(1-2):56-62.\nas §1\nThe ability of flufenazine to induce neurite outgrowth is investigated both in cortical and spinal cord neuronal cultures after 24 h exposure to flufenazine.\nThe neurite length as well as the percentage of cells with neurites are quantified by careful microscopic inspection. On cortex neurons type, the results are depicted in FIG. 4; the cortex neurotrophic effect of flufenazine (200 nmol/l) is expressed as an increase of 30% on neurites length compared to the neurites length in the control cortex neurons"}, "SOD mice": {"system": "SOD mice", "experiment": "Survival rate of SOD mice after oral administration", "format": "in vivo", "procedure": "In vivo studies were conducted on transgenic animals with ALS causing mutations, a model for neurodegenerative diseases according to protocols described by Gurney Me, Pu H, Chiu Ay, Dal Canto Mc, Polchow Cy, Alexander Dd, Caliendo J, Hentati A, Kwon Yw, Deng Hx, et al. in Motor neuron degeneration in mice that express a human Cu,Zn superoxide dismutase mutation. Science (1994) 264:1772-1775; and by Mohajeri Mh, Figlewicz Da, Bohn Mc in Selective loss of alpha motoneurons innervating the medial gastrocnemius muscle in a model of amyotrophic lateral sclerosis. Exp. Neurol. (1998) 150:329-336.\nMice are used at 4 months of age i.e. about 2 weeks before the appearance of the first symptoms.\nThey are genotyped for SOD1 gene using PCR method.\nAnimals are assigned into four groups to receive a daily oral administration of 1)saline as control, 2) 0.1 mg/kg, 3) 1 mg/kg, 4) 10 mg/kg of flufenazine, until death by weakness and paralysis occurs.\nSurvival rate was recorded on a daily basis."}}}
{"smiles": "OCCN1CCN(CCCN2c3ccccc3Sc3ccc(C(F)(F)F)cc32)CC1", "note": "[flufenazine, 4-[3-[2-(trifluoromethyl)-10H-phenothiazin-10-yl]propyl]-1-pyperazine-ethanol]", "values": [{"measurement": "percentage of neuronal survival", "setting": "[1]", "result": "increase regularly from 48 h until 120 h"}, {"measurement": "increase of percentage of neuronal survival after glutamic acid intoxication", "setting": "cortical neurons [2]; 200 nmol/l, after 10 min glutamic acid 100 micromol/l, compared to cultures without flufenazine", "result": 10, "unit": "%"}, {"measurement": "effect on cell survival in the absence of neurotoxic compound", "setting": "cortical neurons [2]; no glutamic acid, FIG. 2 left part", "result": "no or very slight effect"}, {"measurement": "neurite expansion versus control neurons", "setting": "mesencephalic neurons", "result": "longer neurite expansion than in control neurons"}, {"measurement": "reversal of MPP+ induced neuronal loss", "setting": "mesencephalic neurons", "result": "reverses MPP+ induced neuronal loss to the same extent as Riluzole"}, {"measurement": "increase of TH positives cells", "setting": "mesencephalic neurons; after 2 micromol MPP+ during 24 h, observed after 48 hours", "result": 30, "unit": "%"}, {"measurement": "increase on neurites length compared to control cortex neurons", "setting": "cortical neurons [3]", "result": 30, "unit": "%"}, {"measurement": "survival of SOD mice compared to saline treated group", "setting": "SOD mice; 0.1 mg/kg daily oral", "result": "enhanced the survival"}, {"measurement": "survival of SOD mice compared to saline treated group", "setting": "SOD mice; 1 mg/kg daily oral", "result": "enhanced the survival"}, {"measurement": "survival of SOD mice compared to saline treated group", "setting": "SOD mice; 10 mg/kg daily oral", "result": "adverse effect and induced a leftward shift in the survival curve"}]}
